Test [1] is described as follows: Antioxidant activity assessed as concentration equivalent of 0.5 absorbance glutathione for potassium ferricyanide reduction after 20 min by spectrophotometric assay. It is filed as functional.
The test system of test [2] is Radical scavenging activity. The test is described as follows: Antioxidant activity assessed as DPPH radical scavenging activity at 1 mg/ml after 20 min by spectrophotometric analysis. It is filed as functional. For orientation: The DPPH test is a chemical assay of radical scavenging.

In the case of `O=C1Nc2ccccc2Nc2cc(-c3ccc(F)cc3)cc(-c3ccc(F)cc3)c21`, the values for the Activity in test [1] and in test [2] were 2.64 mg/mL and 58.7%, respectively.
For the molecule `O=c1[nH][nH]c2c1C(c1ccc(F)cc1)CC(c1ccc(F)cc1)=C2` (stereo unspecified), the Activity is 1.81 mg/mL in test [1] and 95.9% in test [2].
As for `COC(=O)c1c(OC)cc(-c2ccc(F)cc2)cc1-c1ccc(F)cc1`, the Activity was found to be 14.3 mg/mL in test [1] and 49.1% in test [2].
As to `O=c1c2c(-c3ccc(F)cc3)cc(-c3ccc(F)cc3)cc2[nH]n1-c1ccccc1`, the Activity in test [1] was determined as 5.55 mg/mL; in test [2] it was 95.2%.
For `COC(=O)C1=C(N)C=C(c2ccc(F)cc2)CC1c1ccc(F)cc1` (stereo unspecified), the Activity in test [1] turned out to be 5.55 mg/mL; in test [2] it was 40.9%.
Taken in the same sequence, the figures for `COC(=O)C1/C(=N/NC(N)=O)C=C(c2ccc(F)cc2)CC1c1ccc(F)cc1` (stereo unspecified) were 20 mg/mL and 65.4%.
On the same counts, the results for `CCOC(=O)c1c(OC)cc(-c2ccc(F)cc2)cc1-c1ccc(F)cc1` are 22.7 mg/mL and 50.2%.
In the case of `O/N=C1/C=C(c2ccc(F)cc2)CC(c2ccc(F)cc2)C1` (stereo unspecified), the results for the Activity in test [1] and in test [2] were 4.54 mg/mL and 89.2%, respectively.
Taken in the same sequence, the figures for `N[C@@H](CCC(=O)N[C@@H](CS)C(=O)NCC(=O)O)C(=O)O` were 0.595 mg/mL and 92.1%.
Turning to `CCOC(=O)C1/C(=N/NC(N)=O)C=C(c2ccc(F)cc2)CC1c1ccc(F)cc1` (stereo unspecified), the Activity in test [1] is 8.33 mg/mL; in test [2], 66.5%.
Taken in the same sequence, the figures for `CCOC(=O)C1=C(N)C=C(c2ccc(F)cc2)CC1c1ccc(F)cc1` (stereo unspecified) were 25 mg/mL and 68%.
Turning to `O=c1c2c([nH]n1-c1ccc([N+](=O)[O-])cc1)C=C(c1ccc(F)cc1)CC2c1ccc(F)cc1` (stereo unspecified), the Activity in test [1] is 3.52 mg/mL; in test [2], 94.4%.
`N/N=C(N)/N=C1/C=C(c2ccc(F)cc2)CC(c2ccc(F)cc2)C1` (stereo unspecified): the Activity is 4.03 mg/mL in test [1] and 89.2% in test [2].

The record behind these values is ChEMBL document CHEMBL3046089, “A study on the reactions of alkyl 4,6-bis(4-fluorophenyl)-2-oxocyclohex-3-ene-1-carboxylate and in vitro antioxidant activity of derivatives” (Med Chem Res, 2013).
